Data from patent publication US9790198B2, “Substituted benzothiophenyl derivatives as GPR40 agonists for the treatment of type II diabetes” (Janssen Pharmaceutica NV, priority 2014, dated 2017).

Biological target: human GPR40 (Homo sapiens (Human), UniProt O14842)
Assay: GPR40 Calcium Flux Assay
Assay type: cell-based
Conditions: transfected HEK293 cells stably expressing human GPR40, mean data, read-out: hGPR40 Ca^2+ Assay EC50
Experimental: Compounds were tested in a calcium flux assay using transfected HEK293 cells stably expressing either human GPR40 or rat GPR40. Human GPR40 expressing cells were cultured in DMEM-High Glucose media supplemented with 10% fetal bovine serum, 1×L-Glutamine, 1× Penicillin/Streptomycin and 500 μg/mL G418. Rat GPR40 expressing cells were cultured in DMEM-High Glucose media supplemented with 10% fetal bovine serum and 1 μg/mL puromycin. Cells were plated into poly-D-lysine coated 384-well plates and cultured overnight in a 37° C. humidified tissue culture incubator under 5% CO2/90% O2 atmosphere. On the day of the experiment, the culture media was replaced with assay buffer (HBSS, 20 mM HEPES, 0.1% BSA) and the cells incubated at 37° C. for 1 h. Calcium-sensitive fluorescent dye (Fluo 8 No-Wash Calcium Dye, ABD Bioquest) was then added and the cells incubated for another 30 min at 37° C. followed by 15 min at room temperature while protected from the light. The cell plate and a plate of diluted compounds of Formula (I) were loaded into a fluorescent plate reader that added compounds onto the cells while measuring the fluorescence intensity of each well. The plate reader recorded fluorescence intensity at 1 second intervals for 8 min and provided the data for analysis in an Excel format. EC50 values were calculated using Prism (GraphPad) software.

human GPR40, sequence (O14842 whole entry): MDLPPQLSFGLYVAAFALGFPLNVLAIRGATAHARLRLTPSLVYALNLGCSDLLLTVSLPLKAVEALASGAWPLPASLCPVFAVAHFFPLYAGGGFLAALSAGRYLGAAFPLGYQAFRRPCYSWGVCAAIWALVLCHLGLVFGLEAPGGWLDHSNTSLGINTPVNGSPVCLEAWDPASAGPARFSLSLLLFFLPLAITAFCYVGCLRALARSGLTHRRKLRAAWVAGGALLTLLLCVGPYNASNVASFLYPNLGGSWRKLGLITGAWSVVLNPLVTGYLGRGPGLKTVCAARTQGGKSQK

EC50: 14 nM
SMILES: Cc1ccccc1-c1csc2ccc(COc3ccc([C@]4(CC(=O)O)C[C@@H](O)C4)cc3)cc12 [Cpd 31, 2-((1r,3r)-3-Hydroxy-1-(4-((3-(2-methylphenyl)benzo[b]thiophen-5-yl)methoxy)phenyl)cyclobutyl)acetic acid]
